The values below come from patent publication US10028990B2, “Functional foods and beverages with synergistic properties to promote homeostasis” (JUSTBIO INC., priority 2011, dated 2018).

Residues, ends and D or L forms follow the SMILES beside them.

Assay [1] in a line: ORAC (Oxygen Radical Absorbance Capacity) test. The settings on record: FIG. 46; combined with maple syrup. The protocol:
The antioxidant capacity of formulations and beverages was determined with the ORAC (Oxygen Radical Absorbance Capacity) test. ORAC assays were performed as previously described (Prior et al, 2005). […] These free radicals are generated by the exposition of flurorescein to AAPH. […] The oxidation process is a kinetic reaction that is measured fluorescence levels (excitation: 485 nm, emission: 528 nm) over time using a Synergy HT (Biotek) microplate reader. Area under the curves (AUC) from each compound tested are calculated and compared to the blank and the control of reference the vitamin E analog 6-Hydroxy-2,5,7,8 Teramethylchromane-2-carboxylic acid (Trolox). ORAC values are expressed as μmol of Trolox equivalent per ml (μmol TE/ml) of compound tested.

Assay [2] deals with SH-SY5Y neurons. Briefly: ROS production by dopaminergic SH-SY5Y neurons exposed to supernatant of Cal27 cells. In kind it is cell-based, Human. The procedure:
(§1) Cellular ROS levels were obtained by measuring the oxidation of CM-H2DCFDA (5-(and 6)-chlromethyl-20,70-dichlorodihydrofluresceindiacetate; Invitrogen) a cell-permeant indicator. Cal27, HEK 293 and SH-SY5Y were plated in 96 well plates at a cell density of 25000 cells per well. Cells were treated for 1 hour with 5 μM CM-H2DCFDA. After removing the CDFDA solution, cells were treated with various adaptogenic formulations prepared with ROS buffer (HBSS containing 2% FBS). After 30 min of exposure with samples, a first reading was taken using the synergy HT (Biotek) plate reader. Various concentrations of AAPH (100 mM, 40 mM, 16 mM, 6.4 mM and 2.5 mM) were then added, and readings (excitation: 485 nm, emission: 530 nm) were taken every 30 minutes for 2 hours. The fluorescence intensity is an indicator of H2O2 intracellular level so values are expressed in Relative Fluorescence Unit (RFU).
This assay mimics the impact of mucosal cells on subepithelial neuronal cells.

The target of assay [3] is T1, TLR2 (Homo sapiens, UniProt O60603+Q15399).
T1 construct: TLR2-dependent ROS production in Cal27 exposed for 30 minutes to various concentrations of AAPH; host or cells: CAL27
Briefly: TLR2 activation with Pam3Cys in Cal27 cells under low or high oxidative stress. In kind it is cell-based. The settings on record: FIG. 34, Pam3Cys 500 ng/ml. The protocol:
Cell lines (CAL27, SH-SY5Y) used for this assay were plated in plaque assays at a density of 50,000-100,000 cells per well. Colorimetric MTT (3-(4,5-dimethylthiazol-2-yl)-2,5-diphenyl tetrazolium bromide) was dissolved in HBSS buffer to obtain a final concentration of 0.5 mg/ml per well. Cell plates were incubated for 2 hours at 37° C. Conditioned medium was then removed, and acid-isopropanol (0.04N HCl in isopropanol) was added to all wells. HCL was used as positive control to induce cell death. Plates were read at 530 nm/630 nm in a Synergy Biotek machine. […] This method is an adaptation of a previously described assay (Mossman, 1983).
All cell lines were obtained from the American Type Culture Collection (ATCC, Manassas, US). In some experiments, cells were transferred to a 96 wells plate and treated with different concentration of TLR2 agonist synthetic triacylated lipoprotein PAM3CSK4 (InvivoGen) starting by 500 ng/ml final concentration to activate TLR2.
as §1
ATP intracellular levels were measured from whole cell lysates obtained through a freeze-thaw cycle, whereas ATP secreted from cells were measured from conditioned cell culture supernatants. Both intracellular and secreted ATP using measured using an ATP determination kit purchased from Invitrogen (Molecular Probes). ATP levels were detected at luminescence 560 nm. ATP levels were normalized to untreated control and were expressed as % ATP levels.

T1 sequence (O60603 21-784): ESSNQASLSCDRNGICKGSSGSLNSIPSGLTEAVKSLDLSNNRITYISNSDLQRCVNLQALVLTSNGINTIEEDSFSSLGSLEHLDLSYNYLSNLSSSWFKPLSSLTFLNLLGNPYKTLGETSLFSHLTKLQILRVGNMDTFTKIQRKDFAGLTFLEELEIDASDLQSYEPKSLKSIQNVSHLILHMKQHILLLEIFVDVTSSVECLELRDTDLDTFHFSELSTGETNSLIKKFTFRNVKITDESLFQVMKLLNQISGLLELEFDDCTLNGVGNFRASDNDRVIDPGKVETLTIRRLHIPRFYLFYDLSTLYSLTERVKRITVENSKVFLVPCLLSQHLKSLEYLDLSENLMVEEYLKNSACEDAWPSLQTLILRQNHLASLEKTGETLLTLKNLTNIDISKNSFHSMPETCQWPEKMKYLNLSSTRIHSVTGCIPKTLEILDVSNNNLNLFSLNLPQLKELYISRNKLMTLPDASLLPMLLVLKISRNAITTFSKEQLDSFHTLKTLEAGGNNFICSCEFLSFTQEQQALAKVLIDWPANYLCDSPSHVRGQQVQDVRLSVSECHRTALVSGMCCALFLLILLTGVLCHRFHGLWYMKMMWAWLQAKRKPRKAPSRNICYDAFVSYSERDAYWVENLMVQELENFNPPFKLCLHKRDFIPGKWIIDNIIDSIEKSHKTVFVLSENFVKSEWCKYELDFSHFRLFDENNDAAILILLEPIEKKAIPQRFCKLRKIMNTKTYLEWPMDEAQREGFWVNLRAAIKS
T1 sequence (Q15399 25-786): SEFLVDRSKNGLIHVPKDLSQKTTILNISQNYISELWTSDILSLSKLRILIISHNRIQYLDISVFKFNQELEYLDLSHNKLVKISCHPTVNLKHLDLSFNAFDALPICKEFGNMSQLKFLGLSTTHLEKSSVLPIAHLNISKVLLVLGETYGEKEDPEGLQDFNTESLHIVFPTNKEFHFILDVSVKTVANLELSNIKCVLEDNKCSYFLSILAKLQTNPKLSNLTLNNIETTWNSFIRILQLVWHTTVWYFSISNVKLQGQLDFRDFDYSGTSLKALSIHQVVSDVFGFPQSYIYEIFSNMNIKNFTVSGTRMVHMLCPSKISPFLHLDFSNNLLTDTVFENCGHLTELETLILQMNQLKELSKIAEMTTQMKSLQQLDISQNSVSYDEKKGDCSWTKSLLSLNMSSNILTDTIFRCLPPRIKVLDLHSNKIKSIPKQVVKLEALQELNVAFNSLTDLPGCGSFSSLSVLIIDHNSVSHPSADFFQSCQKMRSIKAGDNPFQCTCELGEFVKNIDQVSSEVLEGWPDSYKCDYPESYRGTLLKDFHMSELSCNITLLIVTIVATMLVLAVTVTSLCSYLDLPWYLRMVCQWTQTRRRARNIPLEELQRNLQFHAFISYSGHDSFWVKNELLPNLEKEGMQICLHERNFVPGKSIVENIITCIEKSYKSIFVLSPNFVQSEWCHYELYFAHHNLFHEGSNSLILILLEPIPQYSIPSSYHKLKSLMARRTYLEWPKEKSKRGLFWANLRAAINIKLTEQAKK

With `C=C1C[C@@]23CC[C@H]4[C@@](C)(CCC[C@@]4(C)C(=O)O[C@@H]4O[C@H](CO)[C@@H](O)[C@H](O)[C@H]4O)[C@@H]2CC[C@]1(O[C@@H]1O[C@H](CO)[C@@H](O)[C@H](O[C@@H]2O[C@H](CO)[C@@H](O)[C@H](O)[C@H]2O)[C@H]1O[C@@H]1O[C@H](CO)[C@@H](O)[C@H](O)[C@H]1O)C3` [Rebaudiside A, Rebaudioside A], in assay [1], the “synergy in combination with maple syrup (ORAC versus sum of SE+ingredient)” value is recorded as “act in synergy”.
The same measure, in the same setting: the result for `COC(=O)[C@H](Cc1ccccc1)NC(=O)[C@@H](N)CC(=O)O` [aspartame] (H-Asp-Phe-OMe) reads “does not create this synergy”; that for `C=C1C[C@@]23CC[C@H]4[C@@](C)(CCC[C@@]4(C)C(=O)O[C@@H]4O[C@H](CO)[C@@H](O)[C@H](O)[C@H]4O)[C@@H]2CC[C@]1(O[C@@H]1O[C@H](CO)[C@@H](O)[C@H](O)[C@H]1O[C@@H]1O[C@H](CO)[C@@H](O)[C@H](O)[C@H]1O)C3` [stevioside], “act in synergy”; that for `OC[C@H]1O[C@H](O[C@]2(CCl)O[C@H](CCl)[C@@H](O)[C@@H]2O)[C@H](O)[C@@H](O)[C@H]1Cl` [sucralose], “does not create this synergy”.
In the case of Pam3Cys, the “ROS production by dopaminergic neurons upon TLR2 activation of Cal27 cells” value in assay [2] (FIG. 37, 50 ng/ml of Pam3Cys) is on record as “reduce ROS production”. In addition, the “neuroprotective role upon TLR2 activation of Cal27 cells” value in assay [2] (higher dose of Pam3Cys (250 or 500 ng/ml)) is reported as “did not have this neuroprotective role”. In addition, in assay [3] (6.4 mM and 16 mM AAPH), the “impact on ROS production” value is “no significant impact” and the “impact on mitochondrial activity” value is given as “no significant impact”. Also, the ATP secretion entry in assay [3] (cells without AAPH) is reported as “slightly increased ATP secretion”. Further, the ATP production result in assay [3] (high oxidative stress (16 mM AAPH)) is “increases ATP production”.
